This is an account of results in patent US9332756B2, “Liquid formulations of carboxamide arthropodicides” (E I DU PONT DE NEMOURS AND COMPANY, priority 2006, dated 2016).

The mortality is the share of the test organisms that died.

Common to all, as to format: in vivo
For data set [1], the system named is western flower thrips (Frankliniella occidentalis Pergande). As to the kind of experiment: Test A: control of western flower thrips on sprayed bean plants. The following applies: spray 500 L/ha, 7 days, immature thrips count. Here is the method:
For evaluating control of the western flower thrips (Frankliniella occidentalis Pergande) through contact and/or systemic means, each test unit consisted of a bean plant (var. Soleil) with at least two true leaves, which was planted in Redi-earth® medium (Scotts Co.). One plant was considered as one replication; four replications were used per treatment.
Technical material (unformulated) was dissolved in acetone and mixed with water containing 500 ppm of a blend of non-ionic surfactant with organosilicone (Kinetic®, Helena Chemical Co.). Formulated materials were diluted with water only. Rates of the test solutions were reported by the amount of active ingredient in ppm. Plants were sprayed using a TeeJet flat fan spray nozzle positioned 7.5 inches (19 cm) above the tallest plant. Spray flow rate was adjusted to 5.5 mL/sec for an equivalent of 500 L/ha. After spraying of the test solutions, the test units were placed in ventilated enclosures for at least one hour to dry. Thirty adult thrips were then added to each unit, and then the plants were placed in enclosed cages to prevent insect egress. […] Percent control was calculated by dividing the number of immature thrips in a test unit by the number of immature thrips in the untreated unit, subtracting the quotient from 1, and then multiplying the difference by 100%.

The subject of data set [2] is silverleaf whitefly (Bemisia argentifolii Bellows & Perring). The data set is described as follows: Test B: control of silverleaf whitefly on sprayed cotton plants. As to conditions: 144 h, read-out: % Mortality of Silverleaf Whitefly. The text has this: For evaluating control of silverleaf whitefly (Bemisia argentifolii Bellows & Perring), the test unit consisted of a 14-21-day-old cotton plant with at least two true leaves, which was planted in Redi-earth® medium (Scotts Co.). The plants were placed in screened cages, where whitefly adults were introduced and allowed to lay eggs for approximately twenty-four hours. Only plants showing egg lay were used for testing. Before spraying the test solutions, the plants were checked again for egg hatch and crawler settlement. One leaf per plant was considered as one replication; four replications were used per treatment.
Test solutions were formulated as described in TEST A. A control solution consisting of 25% acetone in water was also prepared. After spraying, plants were allowed to dry in a ventilated enclosure and held for six days in a growth chamber at 50% relative humidity, 16 h with light (as daytime) at 28° C. and 8 h in dark (as nighttime) at 24° C. After removing all leaves from each test plant, evaluation was made by counting dead and live nymphs present on the underside of the leaves.

The subject of data set [3] is green peach aphid (Myzus persicae). As to the kind of experiment: Test C: control of green peach aphid on sprayed radish plants. The following applies: 144 h, read-out: % Mortality of Green Peach Aphid. The procedure: For evaluating control of green peach aphid (Myzus persicae) through contact and/or systemic means, the test unit consisted of a 3-week old radish plant pre-infested with 30-40 aphids 24 h prior to treatment with test solutions. One plant was considered as one replication, four replications were used per treatment.
After spraying of the formulated test solutions, each test unit was allowed to dry, and the test units were held for 6 days in a growth chamber maintained at 19-21° C. and 50-70% relative humidity. Dead and live of aphids were counted in each test unit to determine percent mortality.

For data set [4], the system named is beet armyworm (Spodoptera exigua). As to the kind of experiment: Test D: rainfastness for the control of beet armyworm on sprayed cotton plants. As to conditions: Rain: Yes (about 95 mm simulated rain 2 h after spraying), four days after infestation. From the text: For evaluating rainfastness (resistance to wash-off) for the control of beet armyworm (Spodoptera exigua), the test unit consisted of a cotton plant grown in a pot containing Redi-earth® medium. Test solutions were formulated as described in TEST A. When the plants were at the 4-6 true leaf growth stage, the plants were sprayed with the formulated test solution using a belt sprayer with nozzle positioned 19 cm above the plants and providing an application volume of 234 liters/ha. After spraying of the formulated test solutions, each test unit was allowed to dry for 2 h and then exposed to about 95 mm of simulated rain in a greenhouse. Plants were then allowed to dry, and leaves were cut and placed on agar in 16-cell plastic trays. One 3-day-old, laboratory reared beet armyworm larva was placed in each cell, and the cells were covered with a plastic lid. Two 16-cell trays were used per treatment. Trays were held in a growth chamber at 75% relative humidity, 16 h with light (as daytime) and 8 h in dark (as nighttime) at 25° C. Four days after infestation, each test unit was evaluated for larvae mortality, and the mean concentrations killing 50% of the population (mean LC50) were calculated and are listed in Table 4D.

On to `CNC(=O)c1cc(C#N)cc(C)c1NC(=O)c1cc(Br)nn1-c1ncccc1Cl` [Technical Compound 1, 3-bromo-1-(3-chloro-2-pyridinyl)-N-[4-cyano-2-methyl-6-[(methylamino)carbonyl]phenyl]-1H-pyrazole-5-carboxamide], for which, in data set [1] (100 ppm a.i.), the “% Control of Western Flower Thrips” value was 74%. Besides, the “% Control of Western Flower Thrips” value in data set [1] (200 ppm a.i.) came out at 72%. Moreover, in data set [2], the mortality at 22 ppm stood at 90%, the mortality at 66 ppm came to 91%, the mortality at 200 ppm came out at 100% and the mortality at 600 ppm stood at 100%. Moreover, in data set [3], the mortality at 50 ppm worked out at 8%, the mortality at 100 ppm is 9%, the mortality at 200 ppm worked out at 19% and the mortality at 400 ppm amounted to 35%. For the same molecule, the “Mean LC50 of Beet Armyworm” value in data set [4] is listed as “Very little activity”. In data set [4] (listed as Compound 1), the “Mean LC50 of Beet Armyworm” value is listed as “very little activity”.
With `CNC(=O)c1cc(Cl)cc(C)c1NC(=O)c1cc(Br)nn1-c1ncccc1Cl` [Technical Compound 2, 3-bromo-N-[4-chloro-2-methyl-6-[(methylamino)carbonyl]phenyl]-1-(3-chloro-2-pyridinyl)-1H-pyrazole-5-carboxamide], the figures for the “Mean LC50 of Beet Armyworm” value in data set [4] and in data set [4] (listed as Compound 2) were “Inactive” and “no detectable activity”, respectively.
